Results reported in the supplement of paper PMC10307832.

Legend:
Assay in all cases: relative viability (nuclei count vs DMSO), 5 days (fraction); higher = more cells survive
BAY61-3606 + OSI-027 = compound: COC1=C(C=C(C=C1)C2=CC3=NC=CN3C(=N2)NC4=C(C=CC=N4)C(=O)N)OC [BAY61-3606] + COc1cccc2cc(-c3nc([C@H]4CC[C@H](C(=O)O)CC4)n4ncnc(N)c34)[nH]c12 [OSI-027] (partner 0.5 µM)
Method in brief: (§1)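 Relative viability was taken as the ratio of nuclei in treated wells to nuclei in vehicle wells. Lung cancer cell lines in 1536-well plates received compounds by pin tool one day after seeding, either one drug alone or a fixed anchor-drug dose plus five library-drug doses (not always all listed) in √10 steps. Nuclei were counted on 4× images after 5 days of treatment, and values are medians of duplicate plates.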

BAY61-3606 + Tozasertib = compound: COC1=C(C=C(C=C1)C2=CC3=NC=CN3C(=N2)NC4=C(C=CC=N4)C(=O)N)OC [BAY61-3606] + Cc1cc(Nc2cc(N3CCN(C)CC3)nc(Sc3ccc(NC(=O)C4CC4)cc3)n2)n[nH]1 [Tozasertib] (partner 0.1 µM)
Method in brief: as §1

BAY61-3606 + AZD7762 = compound: COC1=C(C=C(C=C1)C2=CC3=NC=CN3C(=N2)NC4=C(C=CC=N4)C(=O)N)OC [BAY61-3606] + NC(=O)Nc1cc(-c2cccc(F)c2)sc1C(=O)N[C@H]1CCCNC1 [AZD7762] (partner 0.2 µM)
Method in brief: as §1

Doxorubicin + Alpelisib = compound: COc1cccc2c1C(=O)c1c(O)c3c(c(O)c1C2=O)C[C@@](O)(C(=O)CO)C[C@@H]3O[C@H]1C[C@H](N)[C@H](O)[C@H](C)O1 [Doxorubicin] + Cc1nc(NC(=O)N2CCC[C@H]2C(N)=O)sc1-c1ccnc(C(C)(C)C(F)(F)F)c1 [Alpelisib] (partner 2 µM)
Method in brief: as §1

Cell Line | relative viability (BAY61-3606 + OSI-027; first compound 0.02 µM) | relative viability (BAY61-3606 + OSI-027; first compound 0.06325 µM) | relative viability (BAY61-3606 + OSI-027; first compound 0.2 µM) | relative viability (BAY61-3606 + OSI-027; first compound 0.6325 µM) | relative viability (BAY61-3606 + OSI-027; first compound 2 µM) | relative viability (BAY61-3606 + Tozasertib; first compound 0.02 µM) | relative viability (BAY61-3606 + Tozasertib; first compound 0.06325 µM) | relative viability (BAY61-3606 + Tozasertib; first compound 0.2 µM) | relative viability (BAY61-3606 + Tozasertib; first compound 0.6325 µM) | relative viability (BAY61-3606 + Tozasertib; first compound 2 µM) | relative viability (BAY61-3606 + AZD7762; first compound 0.02 µM) | relative viability (BAY61-3606 + AZD7762; first compound 0.06325 µM) | relative viability (BAY61-3606 + AZD7762; first compound 0.2 µM) | relative viability (BAY61-3606 + AZD7762; first compound 2 µM) | relative viability (Doxorubicin + Alpelisib; first compound 0.001 µM) | relative viability (Doxorubicin + Alpelisib; first compound 0.003162 µM) | relative viability (Doxorubicin + Alpelisib; first compound 0.01 µM) | relative viability (Doxorubicin + Alpelisib; first compound 0.03162 µM) | relative viability (Doxorubicin + Alpelisib; first compound 0.1 µM) | relative viability (BAY61-3606 + AZD7762; first compound 0.6325 µM)
NCI-H1648 | 0.219 | 0.257 | 0.263 | 0.229 | 0.217 | 0.376 | 0.356 | 0.448 | 0.408 | 0.231 | 0.723 | 0.696 | 0.777 | 0.643 |  |  |  |  |  | 
SK-LU-1 | 0.357 | 0.366 | 0.317 | 0.285 | 0.227 | 0.315 | 0.282 | 0.264 | 0.231 | 0.2 |  |  |  |  | 1.03 | 0.995 | 0.783 | 0.46 | 0.322 | 
NCI-H661 | 0.707 | 0.742 | 0.734 | 0.699 | 0.505 | 0.357 | 0.358 | 0.37 | 0.378 | 0.362 |  |  |  |  | 0.589 | 0.702 | 0.511 | 0.592 | 0.469 | 
Calu-6 |  |  |  |  |  |  |  |  |  |  |  |  |  |  | 1.09 | 1.01 | 0.866 | 0.529 | 0.295 | 
NCI-H2228 | 0.885 | 0.451 | 0.594 | 0.495 | 0.293 | 0.274 | 0.173 | 0.147 | 0.16 | 0.159 |  |  |  |  | 0.724 | 0.822 | 0.647 | 0.393 | 0.198 | 
NCI-H2023 | 0.471 | 0.359 | 0.37 | 0.402 | 0.19 | 0.359 | 0.225 | 0.232 | 0.197 | 0.118 |  |  |  |  | 0.595 | 0.617 | 0.524 | 0.203 | 0.0842 | 
COR-L23 | 0.764 | 0.806 | 0.712 | 0.778 | 0.496 | 0.203 | 0.133 | 0.148 | 0.14 | 0.117 |  |  |  |  | 0.826 | 0.806 | 0.866 | 0.428 | 0.128 | 
NCI-H1299 |  |  |  |  |  |  |  |  |  |  |  |  |  |  | 1.06 | 1.12 | 1.08 | 1.07 | 1.06 | 
COR-L 105 | 0.843 | 0.645 | 0.726 | 0.704 | 0.468 | 0.349 | 0.334 | 0.339 | 0.36 | 0.244 |  |  |  |  | 0.967 | 1.13 | 0.928 | 0.551 | 0.312 | 
NCI-H2009 | 0.754 | 0.686 | 0.681 | 0.597 | 0.348 | 0.847 | 0.648 | 0.67 | 0.651 | 0.511 |  |  |  |  | 1.08 | 1.2 | 1.17 | 1.07 | 0.478 | 
IA-LM |  |  |  |  |  |  |  |  |  |  |  |  |  |  | 0.675 | 0.742 | 0.669 | 0.544 | 0.427 | 
ChaGo-K-1 | 0.537 | 0.533 | 0.519 | 0.495 | 0.639 | 0.237 | 0.21 | 0.232 | 0.22 | 0.223 | 0.943 | 0.904 | 0.9 | 0.841 |  |  |  |  |  | 0.847
NCI-H1563 | 0.742 | 0.764 | 0.699 | 0.71 | 0.676 |  |  |  |  |  |  |  |  |  | 0.888 | 0.824 | 0.726 | 0.529 | 0.51 | 
NCI-H1703 |  |  |  |  |  |  |  |  |  |  | 0.119 |  |  | 0.137 | 0.335 | 0.293 | 0.365 | 0.214 | 0.201 | 0.108
SW 900 | 0.616 | 0.529 | 0.612 | 0.747 | 0.427 | 0.576 | 0.582 | 0.372 | 0.294 | 0.237 | 0.591 |  |  | 0.758 |  |  |  |  |  | 0.632
NCI-H1792 | 0.756 | 0.716 | 0.712 | 0.644 | 0.528 |  |  |  |  |  | 0.783 | 0.538 | 0.802 | 0.455 | 0.794 | 0.836 | 0.538 | 0.679 | 0.548 | 0.62
NCI-H1650 | 0.702 | 0.442 | 0.666 | 0.686 | 0.396 | 0.362 | 0.265 | 0.264 | 0.329 | 0.204 |  |  |  |  |  |  |  |  |  | 
A549 |  |  |  |  |  |  |  |  |  |  |  |  |  |  | 0.799 | 0.676 | 0.48 | 0.132 | 0.0649 | 
NCI-H2342 | 0.705 | 0.609 | 0.596 | 0.682 | 0.664 | 0.574 | 0.466 | 0.47 | 0.668 | 0.525 | 0.459 | 0.496 | 0.416 | 0.586 |  |  |  |  |  | 0.726
NCI-H520 | 0.247 | 0.364 | 0.364 | 0.296 | 0.212 | 0.48 | 0.432 | 0.461 | 0.452 | 0.356 |  |  |  |  | 0.903 | 1.05 | 0.858 | 0.732 | 0.738 | 
NCI-H1623 | 0.417 | 0.427 | 0.504 | 0.418 | 0.412 | 0.485 | 0.439 | 0.458 | 0.394 | 0.328 |  |  |  |  |  |  |  |  |  | 
SK-MES-1 | 0.604 | 0.674 | 0.56 | 0.706 | 0.405 | 0.889 | 0.819 | 0.623 | 0.61 | 0.135 |  |  |  |  | 0.956 | 0.877 | 0.819 | 0.785 | 0.573 | 
SW 1573 | 0.613 | 0.552 | 0.51 | 0.63 | 0.325 | 0.168 | 0.174 | 0.154 | 0.197 | 0.146 |  |  |  |  | 0.904 | 0.731 | 0.641 | 0.447 | 0.428 | 
EBC-1 |  |  |  |  |  |  |  |  |  |  |  |  |  |  | 0.835 | 0.921 | 0.823 | 0.61 | 0.405 | 
